First: CC(=O)NNC1=Nc2sc(Cl)cc2C(c2ccccn2)=NC1
Second: O=C(O)C(=O)NC1N=C2C(=Cc3ccccc32)S1 (stereo unspecified)
The melting point of the first is lower: 193 to 195 °C for the first, 229 to 231 °C for the second.

First: COc1nc(C)cc(C)c1C(=O)O
Second: Cc1ccnc(Cl)c1C(=O)O
The melting point of the first is higher: 210 to 215 °C for the first, 152 to 154 °C for the second.

First: c1ccc(-c2ccc(CCNc3ccncc3)cc2)cc1
Second: CCCCCCCCCCc1ccc(NC(=O)c2cccc(-c3ccccc3)c2O)cc1
The melting point of the first is higher: 140 °C for the first, 74 to 75 °C for the second.

Compared with C=CCNc1nc(NC(=O)N2CCCC2)c2scc(C)c2n1, CC(=O)Nc1ccc(C(=S)N2CCCCC2)cc1 is higher in melting point: 98 to 101 °C for the first, 202 to 203 °C for the second.

First: Cc1cccc(C)c1CNc1cc(C(=O)N(C)C)nc2c(C)c(C)n(Cc3ccccc3)c12
Second: Cc1ccc(-c2cn(C)c(-c3ccc4c(c3)C(C)(C)c3ccccc3-4)n2)s1
The melting point of the first is higher: 203 °C for the first, 188 to 191 °C for the second.

Compared with CCOC(=O)c1cc(-c2ccc(Cl)cc2)cnc1C(Cl)Cl, COc1ccnc(C(=O)c2[nH]c3cc(Cl)ccc3c2N)c1 is higher in melting point: 132 to 134 °C for the first, 195 to 196 °C for the second.

First: CCC(=O)OCCc1ccc2c(c1)C(=O)c1ccccc1CO2
Second: CCCCCCCCCCCCOC(=O)c1ccc2oc3ccccc3c(=O)c2c1
The melting point of the first is lower: 71.5 to 73.5 °C for the first, 79 to 81 °C for the second.

First: CNc1ccc(-c2cc[nH]n2)cc1
Second: COc1ccnc(CCc2nc3cc(-c4ccc(NC(C)=O)cc4)cnc3[nH]2)c1
The melting point of the first is lower: 78 to 86 °C for the first, 220 to 221 °C for the second.

First: COC(=O)C(C)(C)S(=O)(=O)N1CC=C(c2ccc(Br)c(C)c2)CC1
Second: COC(=O)C(=C(C)C)N1CC(N2C(=O)c3ccccc3C2=O)C1=O (stereo unspecified)
The melting point of the first is lower: 100 to 101 °C for the first, 127 to 128 °C for the second.

Compared with CCOC(=O)Nc1cc(Oc2ncccn2)c(Br)cc1F, CCOC(=O)Cc1c[nH]c2cc(-c3ccccc3)nn2c1=O is higher in melting point: 178 °C for the first, 245 to 250 °C for the second.

Going from CCOC(=O)C(C)Oc1ccc2ccc(Oc3cc(-n4c(=O)cc(C(F)(F)F)n(C)c4=O)c(F)cc3C#N)cc2c1 (stereo unspecified) to COc1cc(OCCOc2ccc3ccccc3c2)cc(OC)c1C(=O)C(=O)O, the melting point rises from 133 °C to 154 °C.

Compared with COC(=O)CCCCOc1cc2c(c(Cl)c1Cl)C(=O)C(C)(C1CCCC1)C2 (stereo unspecified), CCC1(C)C(=O)c2c(cc(O)c(Cl)c2Cl)C1c1ccccc1 (stereo unspecified) is higher in melting point: 83 to 86 °C for the first, 248 °C for the second.

First: O[C@@H](CCOc1cccc2ccccc12)c1ccccc1
Second: O=C(O)COCCC1CCCN(c2cnc(-c3ccccc3)c(-c3ccccc3)n2)C1 (stereo unspecified)
The melting point of the first is lower: 76 to 78 °C for the first, 139 to 140 °C for the second.

First: CN1C(=O)[C@H](NC(=O)/C=C/c2ccc(C(F)(F)F)cc2)N=C(c2ccccc2)c2ccccc21
Second: Cc1c(-c2ccc(Cl)c(Cl)c2)n(-c2ccccc2)c(-c2ccccc2)cc1=O
The melting point of the first is lower: 133 to 137 °C for the first, 188 to 191 °C for the second.

Compared with COc1cc2ncc(C#N)c(Nc3cc(Br)c(O)c(Br)c3)c2cc1OC, COc1ccc(-c2cn[nH]c2N)cc1OC is lower in melting point: > 250 °C for the first, 143 to 146 °C for the second.

Going from CN1CCN(c2ccc(OCc3cc(CCC(=O)O)c4c(c3)CC(NS(=O)(=O)c3ccc(Cl)cc3)CC4)cc2)CC1 (stereo unspecified) to O=C(O)CCc1cc2cc(Cl)ccc2n1S(=O)(=O)c1ccccn1, the melting point rises from 148 °C to 189 °C.

Compared with CC(=O)N1N=C(c2ccc([N+](=O)[O-])cc2)c2cc3c(cc2C=C1C)OCO3, CCOc1ccc2c(c1)c(-c1ccc3c(c1)OCO3)c(C(=O)OC)c(=O)n2Cc1ccccc1OC is lower in melting point: 205 to 207 °C for the first, 157 to 158 °C for the second.

First: COc1cc(F)ccc1-c1cncc(OC2SCC(O)C(O)C2O)c1 (stereo unspecified)
Second: COc1ccc(Cn2c3ccc(Cl)cc3c3c(C(=O)Nc4c(Cl)cncc4Cl)ccc(OC)c32)cc1
The melting point of the first is lower: 218 to 228 °C for the first, 257 to 258 °C for the second.

Compared with Cc1cc2c(c(C)c1N)C(c1ccc(C(C)C)cc1)C(C)(C)O2 (stereo unspecified), CCC1=C(C(=O)OC)C(c2ccc(C)cc2)C(C#N)=C(CC(C)(C)C)N1 (stereo unspecified) is higher in melting point: 98 to 100 °C for the first, 126 °C for the second.

Compared with CC(Cc1ccc(Oc2cc(Oc3ccccc3)nc(N3CCN(Cc4ccccc4)CC3)n2)cc1)(Oc1ccccc1)C(=O)O (stereo unspecified), O=C(O)CCCc1ccc(CNC(=O)C2Cc3ccccc3N2S(=O)(=O)c2ccc(-c3cccc(C(F)(F)F)c3)cc2)cc1 (stereo unspecified) is lower in melting point: 135 to 137 °C for the first, 75 °C for the second.

First: CCCCCCCCCCC#CC#CCCCCCCCCC(=O)OC(=O)CCCCCCCCC#CC#CCCCCCCCCCC
Second: CCOc1ccc(C=CCCCCC(=O)O)cc1
The melting point of the first is lower: 58 to 59.5 °C for the first, 62 to 63 °C for the second.

First: COc1ccccc1OCCCl
Second: Oc1ccccc1CCC1NCCS1 (stereo unspecified)
The melting point of the first is lower: 36 to 38 °C for the first, 100 to 102 °C for the second.

First: CCOc1ccc(-c2nc(-c3cccc(C(C#N)C(=O)OC)n3)cs2)cc1OCC (stereo unspecified)
Second: CNC(=O)c1ccccc1Nc1nc(Nc2c(OC)ccc3c2C(=O)N(C)CCC3)ncc1Cl
The melting point of the first is higher: 240 to 242 °C for the first, 185 to 187 °C for the second.

Compared with CNC(=N)Cc1nc(C(C)C)c(Sc2cc(Cl)cc(Cl)c2)n1C, Cc1ccccc1-c1cc(Cl)cc2c1OC(CN)C2 (stereo unspecified) is lower in melting point: 176 to 178 °C for the first, 160 to 163 °C for the second.

First: COC(=O)c1ccc(N=C2NCCN2)c(C)c1
Second: Cc1cc(C(C)N(O)C(N)=O)ccc1Cl (stereo unspecified)
The melting point of the first is higher: 193 to 194 °C for the first, 129 to 131 °C for the second.

First: COc1cc(C(=O)CBr)cc([N+](=O)[O-])c1O
Second: O=[N+]([O-])c1sc2ccc(F)cc2c1Br
The melting point of the first is higher: 147 to 149 °C for the first, 129 to 130 °C for the second.

First: CCOc1nn(-c2ccc(C(F)(F)F)cn2)cc1CCOc1cc(CC(=O)O)n(C)n1
Second: Nc1cccnc1CCCCNc1ncc(Cc2cccnc2)c(=O)[nH]1
The melting point of the first is higher: 156 to 158 °C for the first, 130 to 132 °C for the second.

Compared with C=CCN(C(C)=O)c1cccc(-c2ccnc3c(C#N)cnn23)c1, CCN1CCc2ccc(Nc3ncc(Cl)c(Nc4ccccc4C(=O)NC)n3)cc2CC1 is higher in melting point: 135 to 137 °C for the first, 201 °C for the second.

Compared with O=S(=O)(NCC(F)(F)F)c1ccc(Nc2nc(OCC3CCCCC3)c3nc[nH]c3n2)cc1, COC(C)=CC(=O)Nc1cccc(OC(=O)NC2CCCCC2)c1 is lower in melting point: 223 to 224 °C for the first, 200 °C for the second.

Compared with CC(=O)NC[C@H]1CN(c2ccc(N3CCC(c4noc(C)n4)CC3)c(F)c2)C(=O)O1, COc1cc2oc(=O)c3c(c2cc1OC)CCN(CCN1CC2CCCC(C2)C1)C3 is lower in melting point: 136 to 138 °C for the first, 122 to 125 °C for the second.

First: Cn1ncc(C(=O)N2CCOCC2)c1C(=O)Nc1ccn2nc(N3CCOCC3)nc2c1
Second: O=C(CC1c2ccccc2C(=O)N1c1ccc(Cl)cn1)N1CCCCC1 (stereo unspecified)
The melting point of the first is higher: 206 to 208 °C for the first, 165 to 166 °C for the second.

First: Cc1c(O)ccc2c(O)c(C(=O)Nc3cccc(F)c3)c(=O)oc12
Second: CC(O)CCNc1cc(C(=O)O)cc(S(N)(=O)=O)c1Oc1ccccc1 (stereo unspecified)
The melting point of the first is higher: 287 to 289 °C for the first, 245 to 247 °C for the second.

First: O=C(Nc1ccc(F)cc1)N(CCO)CCCCO
Second: CSc1ncc(Cc2cccnc2)c(=O)[nH]1
The melting point of the first is lower: 62 to 64 °C for the first, 247 to 249 °C for the second.

First: Nc1c(-c2ccc(C(F)(F)F)cc2F)nnn1-c1ccc(S(N)(=O)=O)cc1
Second: Nc1cc(=O)n(Cc2cccc(Cl)c2)[nH]1
The melting point of the first is higher: 184 to 185 °C for the first, 132 °C for the second.

First: c1ccc(OCCSCc2ncc(-c3ccc(OCCN4CCCCCC4)cc3)o2)cc1
Second: O=[N+]([O-])c1cnccc1NCCN1CCC(Nc2nc3ccccc3n2Cc2ccc(CO)o2)CC1
The melting point of the first is lower: 35 to 38 °C for the first, 191 °C for the second.

CC(C)c1nc(N)cc(=O)[nH]1 showed a melting point of 229 to 230 °C.

Reference: a melting point compilation (Tetko et al.; mined from patent text by program, amines drawn as free bases though some values may be those of a salt)
